Source: patent US6552015B2, “Azabicycloalkane derivatives and therapeutic uses thereof” (Pfizer Inc., priority 2000, dated 2003)
Counter-ions that a name gives are not always drawn.

| Compound | melting point |
| --- | --- |
| O=c1[nH]c2c(Cl)cccc2c(=O)n1CCCN1C2CCC1CN(c1ccc(Cl)cc1)C2 (as salt: maleate) | 186 to 188 °C |
| O=c1[nH]c2c(Cl)cccc2c(=O)n1CCCN1C2CCC1CN(c1ccc(Cl)c(Cl)c1)C2 (as salt: maleate) | 205 to 207 °C |
| O=c1[nH]c2ccccc2c(=O)n1CCCN1C2CCC1CN(c1ccc(F)cc1)C2 (as salt: maleate) | 70 to 74 °C |
| O=c1[nH]c2c(Cl)cccc2c(=O)n1CCCN1C2CCC1CN(c1ccc(C(F)(F)F)cc1)C2 (as salt: maleate) | 205 to 207 °C |
| O=c1[nH]c2c(Cl)cccc2c(=O)n1CCCCN1C2CCC1CN(c1ccc(Cl)cc1)C2 (as salt: maleate) | 235 to 238 °C |
| O=c1[nH]c2ccccc2c(=O)n1CCCCN1C2CCC1CN(c1ccc(Cl)cc1)C2 (as salt: maleate) | 187 to 189 °C |
| Cc1ccc(N2CC3CCC2CN3CCCn2c(=O)[nH]c3c(Cl)cccc3c2=O)c(C)c1 (stereo not shown) (as salt: maleate) | 149 to 151 °C |
| O=c1[nH]c2c(Cl)cccc2c(=O)n1CCCN1CC2CC1CN2c1cccc(F)c1 (stereo not shown) (as salt: maleate) [Example 42, 8-CHLORO-3-{3-[5-(3-FLUORO-PHENYL)-2,5-DIAZA-BICYCLO[2.2.1]HEPT-2-YL]-PROPYL}-1H-QUINAZOLINE-2,4-DIONE] | 168 to 170 °C |

Other lines, results leading:

| melting point | Compound |
| --- | --- |
| > 300 °C | Cc1ccc2[nH]c(=O)n(CCCN3C4CCC3CN(c3ccc(Cl)cc3)C4)c(=O)c2c1 (as salt: hydrochloride) |
| 217 to 219 °C | Cc1ccc(N2CC3CCC(C2)N3CCCn2c(=O)[nH]c3c(Cl)cccc3c2=O)c(C)c1 (as salt: maleate) |
| 105 to 108 °C (dec.) | O=c1[nH]c2ccccc2c(=O)n1CCCN1C2CCC1CN(c1ccc(Cl)c(Cl)c1)C2 (as salt: maleate) |
| 173 to 175 °C | O=c1[nH]c2c(Cl)cccc2c(=O)n1CCCN1C2CCC1CN(c1ccc(F)cc1)C2 (as salt: maleate) |
| 205 to 207 °C | O=c1[nH]c2c(Cl)cccc2c(=O)n1CCCN1CC2CC1CN2c1ccc(Cl)cc1 (stereo not shown) (as salt: maleate) [Example 41, 8-CHLORO-3-{3-[5-(4-CHLORO-PHENYL)-2,5-DIAZA-BICYCLO[2.2.1]HEPT-2-YL]-PROPYL}-1H-QUINAZOLINE-2,4-DIONE] |
| 186 to 188 °C | O=c1[nH]c2c(Cl)cccc2c(=O)n1CCCN1CC2CCC1CN2c1ccc(F)cc1 (stereo not shown) (as salt: maleate) [Example 46, 8-CHLORO-3-{3-[5-(4-FLUORO-PHENYL)-2,5-DIAZA-BICYCLO[2.2.2]OCT-2-YL]-PROPYL}-1H-QUINAZOLINE-2,4-DIONE] |
| 68 to 73 °C (dec.) | O=c1[nH]c2c(Cl)cccc2c(=O)n1CCCN1CC2CCC1CN2c1ccc(Cl)c(Cl)c1 (stereo not shown) (as salt: maleate) [Example 48, 8-CHLORO-3-{3-[5-(3,4-DICHLORO-PHENYL)-2,5-DIAZA-BICYCLO[2.2.2]OCT-2-YL]-PROPYL}-1H-QUINAZOLINE-2,4-DIONE] |
| 95 to 98 °C (dec.) | O=c1[nH]c2ccccc2c(=O)n1CCCN1CC2CCC1CN2c1ccc(F)cc1 (stereo not shown) (as salt: maleate) [Example 49, 3-{3-[5-(4-FLUORO-PHENYL)-2,5-DIAZA-BICYCLO[2.2.2]OCT-2-YL]-PROPYL}-1H-QUINAZOLINE-2,4-DIONE] |
